In ChEMBL document CHEMBL3804753, “Substituted quinolines as noncovalent proteasome inhibitors” (Bioorg Med Chem, 2016):
Activity calls are given as the source filed them. The calls are words filed in the database; no cut-off is given here.

Biological target: T1, Proteasome Macropain subunit MB1 (Homo sapiens) (UniProt P28074)
T1 sequence (whole entry): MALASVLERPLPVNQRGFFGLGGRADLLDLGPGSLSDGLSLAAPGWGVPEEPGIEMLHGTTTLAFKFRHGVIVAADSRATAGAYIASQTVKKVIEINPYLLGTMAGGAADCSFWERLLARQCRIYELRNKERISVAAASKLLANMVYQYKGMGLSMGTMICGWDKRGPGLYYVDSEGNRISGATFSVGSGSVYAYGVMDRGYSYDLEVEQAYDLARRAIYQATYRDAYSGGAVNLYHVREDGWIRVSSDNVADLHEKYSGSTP
Assay: Inhibition of human 20S proteasome chymotryptic-like activity using Suc-LLVY-AMC as substrate assessed as fluorescence quinching control by fluorescence assay

`Cc1cc(C)c2cc(-c3ccccc3)c(-c3ccccc3)nc2c1` was tested, and the inhibition was “inactive”.
